The supplement of paper PMC10307832

What was measured:
Experiment in all cases: relative viability (nuclei count vs DMSO), 5 days (fraction); higher = more cells survive
[1] = compound: C1CC(C1)(C(=O)O)C(=O)O.[NH2-].[NH2-].[Pt+2] [Carboplatin] + NC(=O)Nc1cc(-c2cccc(F)c2)sc1C(=O)N[C@H]1CCCNC1 [AZD7762] (partner 0.2 µM)
Procedure, shortened: (§1)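 Dosing by pin tool came one day after lung cancer cell lines were seeded in 1536-well plates, using either one drug or a fixed anchor-drug dose plus five library-drug doses (not always all listed) in √10 steps. After 5 days, nuclei were counted on 4× images. Relative viability is treated-well nuclei count divided by vehicle-well nuclei count, and values are medians of duplicate plates.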

[2] = compound: C1CC(C1)(C(=O)O)C(=O)O.[NH2-].[NH2-].[Pt+2] [Carboplatin] + O=C(CCCCCCC(=O)Nc1ccccc1)NO [Vorinostat] (partner 1 µM)
Procedure, shortened: as §1

[3] = compound: CC[C@H](C)N1C=C(C2=C(C=C(C=C21)C3=CN=C(C=C3)N4CCNCC4)C(=O)NCC5=C(C=C(NC5=O)C)C)C [GSK126] + CC(C)C[C@H](NC(=O)[C@H](Cc1ccccc1)NC(=O)c1cnccn1)B(O)O [Bortezomib] (partner 0.002 µM)
Procedure, shortened: as §1

[4] = compound: CC[C@H](C)N1C=C(C2=C(C=C(C=C21)C3=CN=C(C=C3)N4CCNCC4)C(=O)NCC5=C(C=C(NC5=O)C)C)C [GSK126] + Cc1nc(NC(=O)N2CCC[C@H]2C(N)=O)sc1-c1ccnc(C(C)(C)C(F)(F)F)c1 [Alpelisib] (partner 2 µM)
Procedure, shortened: as §1

| Cell Line | relative viability ([1]; first compound 0.08 µM) | relative viability ([1]; first compound 0.253 µM) | relative viability ([1]; first compound 0.8 µM) | relative viability ([1]; first compound 2.53 µM) | relative viability ([1]; first compound 8 µM) | relative viability ([2]; first compound 0.08 µM) | relative viability ([2]; first compound 0.253 µM) | relative viability ([2]; first compound 0.8 µM) | relative viability ([2]; first compound 2.53 µM) | relative viability ([2]; first compound 8 µM) | relative viability ([3]; first compound 0.08 µM) | relative viability ([3]; first compound 0.253 µM) | relative viability ([3]; first compound 0.8 µM) | relative viability ([3]; first compound 2.53 µM) | relative viability ([3]; first compound 8 µM) | relative viability ([4]; first compound 0.08 µM) | relative viability ([4]; first compound 0.253 µM) | relative viability ([4]; first compound 0.8 µM) | relative viability ([4]; first compound 2.53 µM) | relative viability ([4]; first compound 8 µM) |
| --- | --- | --- | --- | --- | --- | --- | --- | --- | --- | --- | --- | --- | --- | --- | --- | --- | --- | --- | --- | --- |
| NCI-H2087 | 1.38 | 1.48 | 1.2 | 1.12 | 0.939 | 0.981 | 1.23 | 0.62 | 0.531 | 0.396 | 1.02 | 0.668 | 0.94 | 0.941 | 0.907 | 0.993 | 1.21 | 1.26 | 0.919 | 1.05 |
| NCI-H2126 | 0.972 | 1.06 | 1.05 | 1.03 | 0.931 | 0.804 | 0.894 | 0.832 | 0.823 | 0.856 | 1.09 | 1.19 | 1.12 | 1.08 | 1.1 | 0.789 | 0.749 | 0.753 | 0.737 | 0.811 |
| NCI-H2347 | 0.837 | 0.741 | 0.805 | 0.752 | 0.798 | 0.555 | 0.586 | 0.646 | 0.595 | 0.526 | 0.931 | 0.924 | 0.917 | 1.36 | 0.89 | 1.22 | 0.918 | 1.09 | 0.99 | 0.907 |
| NCI-H2405 | 0.832 | 0.757 | 0.757 | 0.646 | 0.454 | 1.19 | 0.983 | 1.12 | 1.11 | 0.767 | 0.988 | 0.974 | 0.985 | 0.982 | 0.975 | 0.774 | 0.664 | 0.827 | 0.761 | 0.667 |
| NCI-H3122 | 1.04 | 1.01 | 0.946 | 0.974 | 0.885 | 0.874 | 0.729 | 0.99 | 1.06 | 1 | 1.01 | 1.04 | 0.994 | 1.01 | 1.07 | 0.827 | 0.854 | 0.767 | 0.768 | 0.829 |
| PC-3 [JPC-3] | 1.04 | 0.732 | 0.836 | 0.706 | 0.553 | 1.14 | 0.799 | 0.9 | 0.765 | 0.685 | 0.823 | 1.01 | 0.786 | 0.817 | 0.856 | 1.04 | 1.13 | 1.05 | 1.02 | 1.07 |
| PC-14 | 0.541 | 0.316 | 0.361 | 0.314 | 0.202 | 0.862 | 0.783 | 0.582 | 0.234 | 0.142 | 0.774 | 0.943 | 0.895 | 0.781 | 0.782 | 0.946 | 0.993 | 0.899 | 0.826 | 0.852 |
| RERF-LC-KJ | 1.14 |  | 1.04 | 0.995 | 0.828 | 0.797 | 0.642 | 0.735 | 0.676 | 0.505 | 1.14 | 1.23 | 0.938 | 1.16 | 1.07 | 0.881 | 0.803 | 0.697 | 0.845 | 0.734 |
